According to paper PMC9189929, “Synthesis, Screening and Characterization of Novel Potent Arp2/3 Inhibitory Compounds Analogous to CK-666” (Frontiers in Pharmacology, 2022):
pIC50: −log10 of the molar value. In brackets after ≈: the same amount, converted by molar mass. Entries after “also recorded” stand apart in the source; their conditions may differ.

Experiments:
MCF10A cells = experiment: EdU incorporation / cell cycle progression screen in MCF10A cells; assay type: cell-based, human; conditions: for Outcome of EdU incorporation screen: 0.025 to 100 μM; for pIC50: Homo sapiens, MCF-10A, 18 h treatment, rough values from Figure 1 graphs, read-out: IC50 (concentration required for 50% decrease of EdU-positive cells)
Protocol: For cell cycle progression using EdU, MCF10A cells were seeded in 384-well plates at a density of 800 cells per well. […] EdU from kit C10337 (ThermoFischer Scientific, Waltham, MA, United States) was then added to the cells at 10 μM and incubated for 2.5 h. Cells were fixed in 4% paraformaldehyde for 30 min at room temperature. Click-iT reaction was performed for 1 h at room temperature, protected from light, with 5 µM Alexa Fluor 488 azide in (100 mM Tris, 1 mM CuSO4, 50 mM Ascorbic Acid, pH 8.5). Nuclei were counterstained with Hoechst 33,342 (Thermo Fisher Scientific). Imaging and analysis were performed using the ImageXpress Micro XL High-Content Screening System (Molecular Devices LLC, San Jose, CA, United States). IC50 values were determined by sigmoidal curve fitting using GraphPad Prism six software.

B16-F1 cells [1] = experiment: Lamellipodium formation in B16-F1 cells (cortactin immunofluorescence); assay type: cell-based, mouse; conditions: for Inhibition of lamellipodium formation: 100 μM, 1 h; for Dose-dependent inhibition of lamellipodium formation, potency relative to CK-666: dose-dependent assay (Figure 2D)
Protocol: Lyophilized compounds were resuspended with fresh DMSO from sealed vials (cell biology grade). Compounds, stored at +4°C, were used within a week. B16-F1 cells were seeded onto glass coverslips coated for 1 h with 25 μg/ml laminin (Sigma) in (50 mM Tris, 150 mM NaCl, pH 7.4). […] Cell were then processed for immunofluorescence.
Cells were fixed in 3.2% PFA on PBS, then quenched with 50 mM NH4Cl and permeabilised with 0.5% Triton X-100. After blocking in 2% BSA cells were incubated with antibodies (1–5 μg/ml for the primary, 5 μg/ml for the secondary). Total actin in cells was visualized by phalloidin staining. Nuclei were stained with 0.3 μg/ml DAPI (Roche). Coverslips were mounted in Dako Fluorescence Mounting Medium (Agilent). For immunofluorescence, ARPC2 rabbit polyclonal antibody (Millipore, 07–227), Cortactin mouse monoclonal 4F11 (Millipore, 05–180) were used. Secondary goat anti-mouse and anti-rabbit antibodies conjugated with Alexa Fluor 555 and 647 respectively were from Life Technologies. Phalloidin conjugated with Alexa Fluor 488 was from Tebu-bio.
(§1) Image analysis was performed in ImageJ or FIJI software. To measure wound healing, boundaries of the wound were drawn manually at different time points, then wound size was measured.

B16-F1 cells [2] = experiment: Wound healing (cell migration) of B16-F1 cells; assay type: cell-based, mouse; conditions: for Inhibition of cell migration (wound healing) compared with 100 µM CK-666: compound at 25 µM
Protocol: For the wound healing, B16-F1 cells were seeded onto 8-well Ibidi dishes coated with laminin, and grown to confluence. Wounds in the cell monolayer were obtained by scratching the monolayer with a pipet tip. Detached cells were immediately washed away and new medium containing the various compounds was added. Cells were then used for videomicroscopy.
Videomicroscopy was performed on an inverted Axio Observer microscope (Zeiss) equipped with a Pecon Zeiss incubator XL multi S1 RED LS (Heating Unit XL S, Temp module, CO2 module, Heating Insert PS and CO2 cover), Definite focus module and a Hamamatsu camera C10600 Orca-R2. Phase contrast images were taken every 30 min for 24 h using the 10X/0.25 Plan-Apochromat air objective. For immunofluorescence, slides were observed and imaged with the 63X/1.4 Plan-Apochromat oil objective. Fluorophores were excited with the HBO 100 W lamp (Osram) installed in the HXP 120 Metal halide fluorescence light source (Zeiss).
as §1

Arp2/3 = molecular target: T1, Arp2/3 (Bos taurus, UniProt A7MB62+P61157); experiment: Pyrene-actin polymerization assay; assay type: biochemical, bovine; conditions: for pIC50: 1.5 μM actin (10% pyrenyl-labeled), read-out: IC50 of Arp2/3-mediated actin polymerization; for pIC50 / Arp2/3 inhibition reached at saturation: 20 nM Arp2/3, 250 nM N-WASP VCA; for Arp2/3 inhibition reached at saturation: 1.5 μM actin
T1 construct: purchased Cytoskeleton, Inc
Protocol: Actin was purified from rabbit muscle and was pyrenyl-labeled ([Carlier et al., 1984]; [Malm, 1984]). Arp2/3 was from Cytoskeleton, Inc. VCA domain of N-WASP was purified as previously described ([Clainche et al., 2003]). Pyrene-actin polymerization assays were performed as previously ([Romero et al., 2007]). Briefly, CaATP-actin was converted into MgATP-actin in (5 mM Tris, 0.2 mM ATP, 0.1 mM CaCl2, 1 mM DTT, 1 mM MgCl2, and 0.2 mM EGTA, pH 7.6) and kept on ice for no more than 1 h. Actin polymerization was monitored in (5 mM Tris, 50 mM KCl, 0.2 mM ATP, 0.1 mM CaCl2, 1 mM DTT, 1 mM MgCl2, 0.2 mM EGTA, pH 7.6) in the presence of 2% DMSO alone or 2% DMSO containing the appropriated compound concentration. The increase in fluorescence of 10% pyrenyl-labeled actin was monitored using a Safas spectrofluorimeter (λexc = 366 nm, λem = 407 nm). The maximum rate of actin polymerization was derived from the maximum slope of the polymerization curve multiplied by [total polymer]/(RFUmax—RFUmin) [total polymer] is the total actin minus the critical concentration (0.1 μM) and RFU, Relative Fluorescence Unit. The maximum elongation rates of actin polymerization were plotted as a function of the concentration of the different compounds. For CK-666, 59, 69 and 71, curves were fitted with the following equation to determine the IC50. Mrate= Rmax−Rmax−Rmin/1+IC50/(Compound Conc.) where Mrate is the measured maximum rate of actin polymerization at a given compound concentration, Rmax is the maximum rate of actin polymerization with no compound, and Rmin is the maximum rate of actin polymerization at saturating concentration of compound.
The curve of compound 15 was fitted with a linear decay. The IC50 was determined at half inhibition of actin polymerization.

sea urchin embryos = experiment: Sea urchin embryo development assay; assay type: in vivo, Paracentrotus lividus; conditions: for Effect on archenteron elongation / Effect on primary mesenchyme cell (PMC) migration: observed up to four-arm mid-pluteus stage
Protocol: The procedure was described in detail in [Semenova et al., 2018]. Briefly, adult sea urchins, Paracentrotus lividus L (Echinidae), were collected from the Mediterranean Sea on the Cyprus coast and kept in an aerated seawater tank. Gametes were obtained by intracoelomic injection of 0.5 M KCl. Eggs were washed with filtered seawater and fertilized by adding drops of diluted sperm. Embryos were cultured at room temperature under gentle agitation with a motor-driven plastic paddle (60 rpm) in filtered seawater. […] For treatment with test compounds, 5 ml aliquots of embryo suspension were transferred to six-well plates and incubated at a concentration of 1,000–2,000 embryos/ml. For images, sedimented embryos were concentrated in the center of the well by gentle rotation of the culture plate, and 200 μl aliquots containing several hundred embryos were used to take pictures (up to 20 images from different fields). Embryos selected for Figure 4 were representative of the population.
(§2) Stock solutions of compounds were prepared in DMSO at 50–250 mM concentration followed by a 10-fold dilution with 96% EtOH. This procedure enhanced the solubility of the test compounds in the salty seawater. Maximal tolerated concentrations of DMSO and EtOH in the assay were determined to be 0.05 and 1%, respectively. Higher concentrations of either DMSO (>0.1%) or EtOH (>1%) caused nonspecific alterations and retardation of the sea urchin embryo development independent of the treatment stage. Maximum solubility of compounds 15, 59, 69, and 71 was about 5–20 mM in seawater, since visible crystals formed at higher concentrations.
The effects were assessed after exposure of fertilized eggs (8–15 min post fertilization, 45–55 min before the first mitotic cycle completion) to 2-fold decreasing concentrations of the compound. Embryonic development was monitored until the beginning of active feeding at four-arm pluteus stage (33–36 h postfertilization). Developmental abnormalities were estimated quantitatively as minimal effective concentration (MEC), resulting in inhibition of archenteron elongation or skeletal spicule formation.

[3] = Maximum solubility in seawater; assay type: physicochemical; conditions: saline or isotonic, kinetic from dmso stock, visible crystals formed at higher concentrations
Protocol: as §2

[4] = treated at zygote stage, monitored to four-arm pluteus

Cc1[nH]c2ccccc2c1CCNC(=O)c1cc([N+](=O)[O-])ccc1Cl [Compound 12, 2-Chloro-N-[2-(2-methyl-1H-indol-3-yl)ethyl]-5-nitrobenzamide]
Outcome of EdU incorporation screen (MCF10A cells): scored positive | pIC50 (MCF10A cells): 4.86 | Inhibition of lamellipodium formation (B16-F1 cells [1]): significantly less active than CK-666

COCC(=O)NCCc1c[nH]c2ccccc12 [CK-689, N-(2-(1H-Indol-3-yl)ethyl)-2-methoxy-acetamide, reference compound]
Inhibition of wound healing (B16-F1 cells [2]; 100 µM): but not CK-689, inhibits wound healing | Activity against Arp2/3 in vitro (Arp2/3; pyrene-actin assay): inactive | Inhibition of lamellipodium formation (B16-F1 cells [1]): formed a single wide lamellipodium encompassing most cell perimeter

CCc1cc2cc(C(=O)NCCc3c(C)[nH]c4ccc(C)cc34)sc2s1 [Compound 24, N-[2-(2,5-Dimethyl-1H-indol-3-yl)ethyl]-5-ethylthieno[2,3-b]thiophene-2-carboxamide]
Outcome of EdU incorporation screen (MCF10A cells): scored positive | pIC50 (MCF10A cells): 5.40 | Inhibition of lamellipodium formation (B16-F1 cells [1]): significantly less active than CK-666

Cc1ccc2[nH]c(C)c(CCNC(=O)c3ccc(C(=O)c4ccccc4)o3)c2c1 [Compound 30, 5-Benzoyl-N-[2-(2,5-dimethyl-1H-indol-3-yl)ethyl]-2-furamide]
Outcome of EdU incorporation screen (MCF10A cells): scored positive | pIC50 (MCF10A cells): 6.16 | Inhibition of lamellipodium formation (B16-F1 cells [1]): significantly less active than CK-666

Cc1[nH]c2ccc(OCc3ccccc3)cc2c1CCNC(=O)c1cccc(Br)c1 [Compound 59, N-{2-[5-(Benzyloxy)-2-methyl-1H-indol-3-yl]ethyl}-3-bromobenzamide]
Cell rounding and detachment in wound healing assay (B16-F1 cells [2]; 25 µM): not observed | Cell rounding and detachment in wound healing assay (B16-F1 cells [2]; 100 µM): to a lesser extent 59 induced cell rounding followed by detachment from the substrate | Inhibition of cell migration (wound healing) compared with 100 µM CK-666 (B16-F1 cells [2]): more active than CK-666 | pIC50 (Arp2/3): 3.74 | Arp2/3 inhibition reached at saturation (Arp2/3): saturation was not reached | Effect on archenteron elongation (sea urchin embryos): inhibited elongation of the archenteron at approximately half-size | Effect on primary mesenchyme cell (PMC) migration (sea urchin embryos): altered PMC migration resulting in the lack of ventrolateral clusters and spicules | Minimum effective concentration, Inhibition of Archenteron elongation (sea urchin embryos; [4]): 10 µM | Minimum effective concentration, Inhibition of Spicule formation (sea urchin embryos; [4]): 5 µM | solubility [3]: 5 to 20 µM (≈ 2.32 to 9.27 µg/mL) | Outcome of EdU incorporation screen (MCF10A cells): scored positive | pIC50 (MCF10A cells): 4.94 | Dose-dependent inhibition of lamellipodium formation, potency relative to CK-666 (B16-F1 cells [1]): slightly less active than CK-666

Cc1[nH]c2ccccc2c1CCNC(=O)c1ccccc1C(=O)c1ccccc1 [Compound 15, 2-Benzoyl-N-[2-(2-methyl-1H-indol-3-yl)ethyl]benzamide]
Cell rounding and detachment in wound healing assay (B16-F1 cells [2]; 25 µM): not observed | Cell rounding and detachment in wound healing assay (B16-F1 cells [2]; 100 µM): induced cell rounding followed by detachment from the substrate | Inhibition of cell migration (wound healing) compared with 100 µM CK-666 (B16-F1 cells [2]): inhibited cell migration as efficiently as 100 µM CK-666 | pIC50 (Arp2/3): 3.98 | Arp2/3 inhibition reached at saturation (Arp2/3): 100% | Developmental abnormality (sea urchin embryos; 5 μM): suppressed plutei growth | Developmental abnormality (sea urchin embryos; 20 μM): Non-specific defects; also recorded: defective gastrulation was observed | Minimum effective concentration, Systemic Toxicity (sea urchin embryos; [4]): 5 µM | solubility [3]: 5 to 20 µM (≈ 1.91 to 7.65 µg/mL) | Outcome of EdU incorporation screen (MCF10A cells): scored positive | pIC50 (MCF10A cells): 4.70 | Dose-dependent inhibition of lamellipodium formation, potency relative to CK-666 (B16-F1 cells [1]): significantly more potent than CK-666

Cc1[nH]c2c(Cl)cccc2c1CCNC(=O)c1cc(S(=O)(=O)N(C)C)c(Cl)cc1Cl [Compound 69, 2,4-Dichloro-N-[2-(7-chloro-2-methyl-1H-indol-3-yl)ethyl]-5-[(dimethylamino)sulfonyl]benzamide]
Inhibition of cell migration (wound healing) compared with 100 µM CK-666 (B16-F1 cells [2]): inhibited cell migration as efficiently as 100 µM CK-666 | pIC50 (Arp2/3): 4.21 | Arp2/3 inhibition reached at saturation (Arp2/3): 67% | Developmental phenotype (sea urchin embryos; 12 μM, 22°C): Defective gastrulation | Effect on archenteron elongation (sea urchin embryos): inhibited elongation of the archenteron at approximately half-size | Effect on primary mesenchyme cell (PMC) migration (sea urchin embryos): altered PMC migration resulting in the lack of ventrolateral clusters and spicules | Minimum effective concentration, Inhibition of Archenteron elongation (sea urchin embryos; [4]): 5 µM | Minimum effective concentration, Inhibition of Spicule formation (sea urchin embryos; [4]): 5 µM | solubility [3]: 5 to 20 µM (≈ 2.44 to 9.78 µg/mL) | Outcome of EdU incorporation screen (MCF10A cells): scored positive | pIC50 (MCF10A cells): 4.30
